Reference: patent US9737520B2, “Aclidinium for use in improving the quality of sleep in respiratory patients” (Almirall, S.A., priority 2011, dated 2017)

Columns and labels:
[1] = tested on: patients with moderate-to-severe COPD; assay: Phase IIa randomised, double-blind, double-dummy, crossover trial; sleep difficulties score on patient diary card (Example 3); format: in vivo, human; details: 15 days; for average score (+/-SEM), change in sleep difficulties score with respect to baseline: aclidinium 400 μg BID, tiotropium 18 μg QD, score 0-4
Experimental: In a Phase IIa randomised, double-blind, double-dummy, crossover trial, patients with moderate-to-severe COPD received inhaled aclidinium 400 μg BID, tiotropium 18 μg QD and placebo for 15 days, with a 9-15 day washout between treatment periods.
The incidence of sleep difficulties was recorded daily on a patient diary card. As in Example 1, the scores ranged from 0 for none to 1-4 for increasing severity of the sleep difficulties. The change in the score produced by each treatment with respect to the baseline was then measured.

[2] = to two inactive metabolites; cited from earlier work
respiratory patients = details: administration in the evening versus only in the morning; cited from earlier work

In the case of O=C(O[C@H]1C[N+]2(CCCOc3ccccc3)CCC1CC2)C(O)(c1cccs1)c1cccs1 [aclidinium, 3(R)-(2-hydroxy-2,2-dithien-2-ylacetoxy)-1-(3-phenoxypropyl)-1-azoniabicyclo[2.2.2]octane], the “average score (+/-SEM), change in sleep difficulties score with respect to baseline” value [1] is listed as −0.123 (0.089) and the “hydrolysis in human plasma” value [2] is listed as “rapidly hydrolysed”.

For C[N+]1(C)[C@@H]2C[C@@H](OC(=O)C(O)(c3cccs3)c3cccs3)C[C@H]1[C@@H]1O[C@@H]12 [tiotropium], the “bronchodilation during the night” value (respiratory patients) is given as “does not produce more bronchodilation during the night”, the “statistical difference of the sleep difficulties score with placebo” value ([1]; aclidinium 400 μg BID (p<0.05), tiotropium 18 μg QD (p>0.05)) is given as “no statistically significant difference” and the “average score (+/-SEM), change in sleep difficulties score with respect to baseline” value [1] is given as −0.011 (0.091).
